Columns and labels:
[1] = Food effect on Compound I pharmacokinetics (fed vs fasted, light or high-fat breakfast); assay type: in vivo, human; conditions: for AUCinf % GLSM Ratio (Fed/Fasted) / AUClast % GLSM Ratio (Fed/Fasted) / Cmax % GLSM Ratio (Fed/Fasted) / Cmax / AUC(0-inf) / AUC(0-t): 100 mg; for Cmax / AUC(0-inf) / AUC(0-t): human, plasma, oral, N = 12; for AUC(0-inf): read-out: AUCinf GLSM; for AUC(0-t): read-out: AUClast GLSM
[2] = Pharmacokinetics of Compound I after single and multiple oral doses of solid dispersion tablets; assay type: in vivo, human; conditions: for half-life: t1/2
Method: The Compound I formulation is prepared as described above by combining Compound I amorphous free base in a 1:1 ratio by mass with copovidone, which is all dissolved in ethanol and spray dried to produce the Compound I solid dispersion. The Compound I solid dispersion is then mixed with various excipients in a dry granulation process to produce tablets that are film coated prior to packaging.
5 mg, 25 mg, 50 mg, and 100 mg tablet formulations were prepared according to Tables 1A and 1B).

[3] = tested on: HCV infection of genotypes 1 to 6; conditions: cited from earlier work
[4] = Spray dry feed solution and solid dispersion evaluation (solubility, stability); assay type: physicochemical
Method: The spray dry feed solution was prepared by solubilizing Compound I and polymer in the feed solvent. In certain cases, aggressive mixing or homogenization can be used to avoid clumping of the composition.
Different polymers were tested for preferred characteristics in the solid dispersions.
The feed solution was initially evaluated for appropriate solvent with regard to solubility, stability, and viscosity. […] Ethanol and methanol-based feed stocks were assessed for preparation ease and spray dried at a range of inlet and outlet temperatures to assess the robustness of the spray dry process. Both solvents gave rapid dissolution of Compound I and copovidone.

[5] = high-fat/high-calorie breakfast vs fasted
[6] = 100 mg fasted, high-fat breakfast cohort (Cohort 6)
[7] = 100 mg fasted, light breakfast cohort (Cohort 5)

For COC[C@H]1C[C@@H](c2ncc(-c3ccc4c(c3)COc3cc5c(ccc6nc([C@@H]7CC[C@H](C)N7C(=O)[C@@H](NC(=O)OC)C(C)C)[nH]c65)cc3-4)[nH]2)N(C(=O)[C@H](NC(=O)OC)c2ccccc2)C1 [Compound I, Methyl {(2S)-1-[(2S,5S)-2-(9-{2-[(2S,4S)-1-{(2R)-2-[(methoxycarbonyl)amino]-2-phenylacetyl}-4-(methoxymethyl)pyrrolidin-2-yl]-1H-imidazol-5-yl}-1,11-dihydroisochromeno[4′,3′:6,7]naphtho[1,2-d]imidazol-2-yl)-5-methylpyrrolidin-1-yl]-3-methyl-1-oxobutan-2-yl}carbamate], the “AUCinf % GLSM Ratio (Fed/Fasted)” value ([1]; high-fat breakfast) was 86.30%, the “AUClast % GLSM Ratio (Fed/Fasted)” value ([1]; high-fat breakfast) was 86.02% and the “Cmax % GLSM Ratio (Fed/Fasted)” value ([1]; high-fat breakfast) was 75.02%. The “AUCinf % GLSM Ratio (Fed/Fasted)” value ([1]; light breakfast) was 124.72%, the “AUClast % GLSM Ratio (Fed/Fasted)” value ([1]; light breakfast) was 124.84% and the “Cmax % GLSM Ratio (Fed/Fasted)” value ([1]; light breakfast) was 134.89%. The “effect of food on absorption and bioavailability” value ([1]; formulated as a solid dispersion) was “slowed the rate of absorption”, the “decrease in AUC with food” value [1, 5] was 14% and the “decrease in Cmax with food” value [1, 5] was 25%. The Cmax [1, 6] was 486 ng/mL, the AUC(0-inf) [1, 6] was 3790 ng·h/mL and the AUC(0-t) [1, 6] was 3750 ng·h/mL. For the same compound, the Cmax [1, 7] was 582 ng/mL, the AUC(0-inf) [1, 7] was 5470 ng·h/mL and the AUC(0-t) [1, 7] was 5390 ng·h/mL. For the same compound, the Cmax ([1]; 100 mg fed, high-fat breakfast) was 364 ng/mL, the AUC(0-inf) ([1]; 100 mg fed, high-fat breakfast) was 3270 ng·h/mL and the AUC(0-t) ([1]; 100 mg fed, high-fat breakfast) was 3220 ng·h/mL. The Cmax ([1]; 100 mg fed, light breakfast) was 785 ng/mL, the AUC(0-inf) ([1]; 100 mg fed, light breakfast) was 6820 ng·h/mL and the AUC(0-t) ([1]; 100 mg fed, light breakfast) was 6730 ng·h/mL. The “increase in AUC with food” value ([1]; light breakfast vs fasted) was 25%, the “increase in Cmax with food” value ([1]; light breakfast vs fasted) was 35% and the “dose proportionality of exposure (AUC and Cmax)” value ([2]; human, in vivo) was “nonlinear PK”. The AUC(0-inf) ([2]; human, in vivo, 5 mg) was 159 ng·h/mL, the AUC(0-t) ([2]; human, in vivo, 5 mg) was 134 ng·h/mL and the CL/F ([2]; human, in vivo, 5 mg) was 58,398.0 mL/h. For the same compound, the Cmax ([2]; human, in vivo, 5 mg) was 22.4 ng/mL, the Tmax ([2]; human, in vivo, 5 mg, Tmax) was 1.5 h and the half-life ([2]; human, in vivo, 5 mg) was 11.2 h. For the same compound, the AUC(0-inf) ([2]; human, in vivo, 50 mg) was 3020 ng·h/mL, the AUC(0-t) ([2]; human, in vivo, 50 mg) was 2970 ng·h/mL and the CL/F ([2]; human, in vivo, 50 mg) was 19,188.4 mL/h. It also gave a Cmax ([2]; human, in vivo, 50 mg) of 371 ng/mL, a Tmax ([2]; human, in vivo, 50 mg, Tmax) of 2.5 h and a half-life ([2]; human, in vivo, 50 mg) of 13.6 h. For the same compound, the AUC(0-inf) ([2]; human, in vivo, 100 mg) was 5060 ng·h/mL, the AUC(0-t) ([2]; human, in vivo, 100 mg) was 4990 ng·h/mL and the CL/F ([2]; human, in vivo, 100 mg) was 24,617.9 mL/h. It also gave a Cmax ([2]; human, in vivo, 100 mg) of 575 ng/mL, a Tmax ([2]; human, in vivo, 100 mg, Tmax) of 2.5 h and a half-life ([2]; human, in vivo, 100 mg) of 15.7 h. It also gave an AUC(0-inf) ([2]; human, in vivo, 150 mg) of 4980 ng·h/mL, an AUC(0-t) ([2]; human, in vivo, 150 mg) of 4930 ng·h/mL and a Cmax ([2]; human, in vivo, 150 mg) of 608 ng/mL. The Tmax ([2]; human, in vivo, 150 mg, Tmax) was 2.75 h, the half-life ([2]; human, in vivo, 150 mg) was 16.2 h and the AUC(0-inf) ([2]; human, in vivo, 450 mg) was 9580 ng·h/mL. The AUC(0-t) ([2]; human, in vivo, 450 mg) was 9500 ng·h/mL, the CL/F ([2]; human, in vivo, 450 mg) was 53,676.4 mL/h and the Cmax ([2]; human, in vivo, 450 mg) was 1120 ng/mL. The Tmax ([2]; human, in vivo, 450 mg, Tmax) was 3.25 h, the half-life ([2]; human, in vivo, 450 mg) was 15 h and the Tmax ([2]; human, in vivo, po, median Tmax (time of maximum plasma concentrations)) was 1.5 to 3.25 h. For the same compound, the “mean plasma concentrations at 24 hours postdose relative to protein-adjusted EC50 for genotype 1 to 6 HCV replicons” value ([2]; multiple once-daily doses greater than 5 mg) was “above the protein-adjusted concentration of a compound inhibiting virus replication by 50% (EC50)”, the anti-HCV activity [3] was “potent anti-HCV activity” and the “solubility in feed solvent” value ([4]; ethanol, methanol, acetone, and dichloromethane (DCM)) was “excellent solubility”. The “chemical stability in feed solution” value ([4]; ethanolic feed solution) was “good chemical stability”.
